Assay results published in patent publication US20140088056A1, “CARDIAC GLYCOSIDES ARE POTENT INHIBITORS OF INTERFERON-BETA GENE EXPRESSION” (priority 2010, published 2014).

Assays:
[1] = test system: IFNβ promoter; experiment: cells; format: cell-based, human
[2] = test system: PRDII element of the IFNβ promoter; format: cell-based, human; conditions: 1 uM, compared with no drug treatment
[3] = test system: PRDIV element of the IFNβ promoter; format: cell-based, human; conditions: absence of virus infection
[4] = test system: virus inducible genes in 293T cells; experiment: Microarray and RT-PCR of gene expression in 293T cells treated with bufalin and/or SeV; format: cell-based, human
[5] = test system: IFNβ and CXCL10 gene expression; experiment: RT-PCR of dsRNA (poly I:C) and dsDNA (poly dA:dT) induced gene expression in 293T cells; format: cell-based, human; conditions: 1 uM, 6 hrs
[6] = test system: Namalwa cells; experiment: RT-PCR of virus induced IFNβ gene expression in Namalwa cells; format: cell-based, human
[7] = test system: IFNβ promoter; experiment: IFNβ reporter induced by over-expression of RIG-I, MAVS or TBK1 in 293T cells; format: cell-based, human
[8] = test system: 293T cells; experiment: Intracellular sodium concentration measurement (SBFI) in 293T cells; format: cell-based, human; conditions: 1 μM, 30 minutes; from about 20 mM without
Description: Bound RIG-I protein was analyzed by western blot (top panel). The expression of IFNβ and Cxcl 10 genes in these cells was also analyzed by RT-PCR (bottom panel). FIG. 3B, high salt concentration inhibits RIG-I helicase activities while the effect on RNA binding is minor. Recombinant RIG-I protein was incubated with dsRNA (67 bp) in the presence of increasing NaCl and KCl concentrations. RNA binding was monitored by native agarose gel analysis (top panel). For the ATPase activities, samples were adjusted to 1 mM ATP and further incubated for 15 min at 37° C., free phosphate released was measured with BIOMOL GREEN reagent. The image of the plate was shown in the bottom panel, and signals from the reading were quantified and graphed in the middle panel. The lanes of the gel, bars of the graph and wells in the ATPase assay are aligned according to experimental conditions. […] 293T cells were loaded with 10 μM SBFI-AM in the presence of 0.02% Pluronic F-127 for 1 hour at 37° C. […] To generate the standard curve, SBFI-Am loaded cells were exposed to solutions with increasing concentrations of sodium in the presence of 10 μM gramicidin for 30 minutes at 37° C. and 340/380 nm fluorescence ratio determined. […]

[9] = test system: MEFs; experiment: RT-PCR of IFNβ induction in mouse embryonic fibroblasts (MEFs); format: cell-based; conditions: 1 uM; SeV, dsRNA, dsDNA
Text: As discussed above, the mouse ATP1a1 protein is not sensitive to cardiac glycoside binding.

[10] = test system: PRDII element (NFkB binding site); format: cell-based, human; conditions: bufalin and TNF 24 hrs
[11] = test system: endogenous TNF target genes; experiment: RT-PCR of TNF induced gene expression in 293T cells; format: cell-based, human; conditions: 6 hrs
[12] = test system: IFN signaling; experiment: IFN induced gene expression in Hela cells; format: cell-based, human; conditions: 1 μM
[13] = test system: MAP kinase P42/p44; experiment: EGF induced phosphorylation of MAP kinase in 293T cells; format: cell-based, human; conditions: 1 μM
[14] = test system: 293T cells; experiment: Western blot analysis of apoptosis and autophagy; format: cell-based, human; conditions: 8 hours, bufalin 1 nM to 10 μM, staurosporine 4 μM
Description: The cells were also exposed to 0.1% Triton X-100 for 1 hr before the viability assay as a control (FIG. 16E). Data represent mean values±s.d. (n=3). […] Cells were harvested and washed, then stained with Allophycocyanin (APC) conjugated Annexin V and 7-AAD for 15 minutes and subjected to flow cytometry analysis. The number in each graph is the percentile of Annexin V or 7-AAD positive populations. […] Total protein lysates were prepared and separated on SDS-PAGE for Western blot analysis of PARP1, cleaved PARP1, cleaved Caspase3, LC3B, ATP1a1, and beta-actin expression.
Apoptosis and autophagy were also analyzed by Western blots. […] Total protein lysates were prepared and separated on SDS-PAGE for Western blot analysis of PARP1, cleaved PARP1, cleaved Caspase3, LC3B, ATP1a1, and beta-actin expression.

[15] = test system: patients; conditions: huachansu, Meng et al.; cited from earlier work

Compound: C[C@]12CC[C@H](O)C[C@H]1CC[C@@H]1[C@H]2CC[C@]2(C)[C@@H](c3ccc(=O)oc3)CC[C@]12O [Bufalin]
- inhibition of IFNβ expression ([1]; 1 uM): more than 90%
- Inhibition % @ 10 μM of virus induced IFNβ expression ([1]; 10 μM, chemical library screen): 99.2%
- IFN expression in the absence of virus infection ([1]; 1 and 10 uM, no virus): weakly induced
- IC50 ([1]; Homo sapiens, HEK-293T, read-out: IC50 for inhibition of virus induced IFNβ expression): 4.3 nM
- repression of viral induction of luciferase expression, PRDII reporter [2]: > 86%
- activity of PRDIV reporter [3]: weakly induced
- IFNβ induction in cells preinfected with virus ([4]; SeV 1.5 hours, then 1 μM for 6 hours): strongly inhibits
- induction of virus-induced genes (IFNβ, IL-8, IFIT1-3, ISG15, OASL, CXCL10, CCL5) ([4]; bufalin plus SeV, 8 hrs): completely blocked
- IFNβ and CXCL10 gene expression in response to poly I:C and poly dA:dT [5]: strongly inhibited
- virus-induced IFNβ gene expression in Namalwa cells [6]: Strong inhibition
- IFNβ reporter induction by MAVS over-expression [7]: no effect
- IFNβ reporter induction by TBK1 over-expression [7]: little effect
- virus induction of the IFNβ reporter when RIG-I was over-expressed [7]: only slightly reduced
- intracellular sodium concentration [8]: over 120 mM
- induction of IFNβ gene by various inducers in MEFs [9]: little effects
- decrease of TNF induced luciferase gene expression [10]: 40%
- expression of endogenous TNF target genes [11]: significantly inhibited
- IFN induction of Stat1 and ISG15 genes [12]: no effect
- IFN induced expression of Cxcl10 and RIG-I genes ([12]; IFN 1000 U/ml, 6 hours): weakly inhibited
- EGF induced phosphorylation of MAP kinase P42/p44 [13]: no effect
- cleavage products of PARP1 and Caspase3 (indication of apoptosis) [14]: not observed
- induction of LC3B-II (marker of autophagy) ([14]; BFA 100 nM): not observed
- well tolerated concentration of bufalin in patients [15]: up to 9 nM
